Results as given in ChEMBL document CHEMBL3638691, “Quinoline derivatives and MELK inhibitors containing the same” (2015).
Where “and” joins values, the source holds several entries; their conditions need not be identical. Equal entries are not always repeated.

Each compound was assayed against Maternal embryonic leucine zipper kinase (Homo sapiens, UniProt Q14680) (assay: Kinase Assay: MELK activity was determined in the presence or absence of compounds using fluorescein isothiocyanate-labeled (FITC-labeled) histone H3 peptide as a substrate. The extent of FITC-labeled histone H3 peptide phosphorylation was measured by immobilized metal ion affinity-based fluorescence polarization (IMAP) technology (Sportsman J R, et al., Assay Drug Dev. Technol. 2: 205-14, 2004) using IMAP FP Progressive Binding System (Molecular Devices Corporation). Test compounds were dissolved in DMSO at 12.5 mM and then serially diluted as the DMSO concentration in the assays to be 1%. The serially diluted compounds, 0.8 ng/micro-L […] (Carna Biosciences) and 100 nM FITC-labeled histone H3 peptide were reacted in a reaction buffer (20 mM HEPES, 0.01% Tween-20, 0.3 mM MgCl2, 2 mM dithiothreitol, 50 micro-M ATP, pH 7.4) at room temperature for 1 hour. The reaction was stopped by the addition of three fold assay volume of progressive binding solution. Following 0.5 hour incubation at room temperature.).
Maternal embryonic leucine zipper kinase, sequence (Q14680 whole entry): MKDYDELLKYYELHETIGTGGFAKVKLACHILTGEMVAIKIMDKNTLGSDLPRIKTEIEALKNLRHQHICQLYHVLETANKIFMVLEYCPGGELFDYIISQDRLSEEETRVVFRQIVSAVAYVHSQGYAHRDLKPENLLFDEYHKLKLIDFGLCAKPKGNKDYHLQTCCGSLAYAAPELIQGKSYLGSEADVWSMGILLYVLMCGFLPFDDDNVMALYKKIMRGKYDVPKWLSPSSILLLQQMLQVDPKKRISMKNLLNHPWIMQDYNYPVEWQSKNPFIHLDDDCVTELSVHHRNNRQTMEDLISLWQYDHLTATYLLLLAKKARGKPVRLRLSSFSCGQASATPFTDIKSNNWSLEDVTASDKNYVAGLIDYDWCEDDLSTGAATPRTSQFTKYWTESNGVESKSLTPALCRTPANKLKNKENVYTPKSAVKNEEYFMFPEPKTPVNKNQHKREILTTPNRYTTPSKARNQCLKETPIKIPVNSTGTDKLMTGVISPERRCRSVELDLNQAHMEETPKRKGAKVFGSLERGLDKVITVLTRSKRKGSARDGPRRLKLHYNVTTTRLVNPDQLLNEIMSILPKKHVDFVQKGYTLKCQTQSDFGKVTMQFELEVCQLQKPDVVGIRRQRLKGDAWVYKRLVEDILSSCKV

SMILES	IC50
CC(=O)c1cnc2ccc(-c3cc(Cl)c(O)c(Cl)c3)cc2c1N[C@H]1CC[C@H](CN(C)C)CC1	3.1 nM
CC(=O)c1cnc2ccc(-c3cnc(C#N)nc3)cc2c1Nc1ccc(CN(C)C)cc1	2.2 nM
COc1cc(-c2ccc3ncc(C(=O)C4CC4)c(Nc4ccc(C5CCCN5C)cn4)c3c2)cc(Cl)c1O (stereo not drawn)	36 nM
COc1cc(-c2ccc3ncc(C#N)c(N[C@H]4CC[C@H](N(C)C)CC4)c3c2)cc(Cl)c1O	1.8 nM
Cc1cc(O)c(Cl)cc1-c1ccc2ncc(C(=O)C3CC3)c(N3CCC(CN(C)C)CC3)c2c1	60 nM
CN(C)CC1CCN(c2c(C(=O)C3CC3)cnc3ccc(-c4ccc(OC(F)F)cc4)cc23)CC1	630 nM
O=C(c1cnc2ccc(-c3cc(Cl)c(O)c(Cl)c3)cc2c1Nc1ccc(CN2CCOCC2)cc1)C1CC1	20 nM
CN(C)Cc1ccc(Nc2c([S+](C)[O-])cnc3ccc(-c4cc(Cl)c(O)c(Cl)c4)cc23)cc1 (stereo not drawn)	8.2 nM
CN(C)CC1CCN(c2c(C(=O)C3CC3)cnc3ccc(-c4ccc5c(c4)CC(=O)N5)cc23)CC1	660 nM
N#Cc1ncc(-c2ccc3ncc(C(=O)C4CC4)c(Nc4ccc(CN)cc4)c3c2)cn1	1.3 nM
O=C(c1cnc2ccc(-c3cc(Cl)c(O)c(Cl)c3)cc2c1N[C@H]1CC[C@H](CN2CCCC2)CC1)C1CC1	1.4 nM
CN1CCN(C[C@H]2CC[C@H](Nc3c(C(=O)C4CC4)cnc4ccc(-c5cc(Cl)c(O)c(Cl)c5)cc34)CC2)CC1	4.2 nM and 2.8 nM
CN(C)C1CCN(C[C@H]2CC[C@H](Nc3c(C(=O)C4CC4)cnc4ccc(-c5cc(Cl)c(O)c(Cl)c5)cc34)CC2)C1 (stereo partly drawn)	3 nM
CN(C)C1CCN(Cc2ccc(Nc3c(C(=O)C4CC4)cnc4ccc(-c5cc(Cl)c(O)c(Cl)c5)cc34)cc2)C1 (stereo not drawn)	7.2 nM and 5.6 nM
O=C(c1cnc2ccc(-c3cc(Cl)c(O)c(Cl)c3)cc2c1N1CCC(CCN2CCCC2)CC1)C1CC1	2.3 nM
CC(=O)c1cnc2ccc(-c3cc(Cl)c(O)c(Cl)c3)cc2c1N[C@H]1CC[C@H](CN2CCN(C)CC2)CC1	5.5 nM
CC(=O)c1cnc2ccc(-c3cc(Cl)c(O)c(Cl)c3)cc2c1N[C@H]1CCC[C@@H](CN2CCN(C)CC2)C1	2.7 nM
CCN(CC)CCO[C@H]1CC[C@H](Nc2c(C(C)=O)cnc3ccc(-c4cc(Cl)c(O)c(Cl)c4)cc23)CC1	2.9 nM
CC(=O)c1cnc2cc(C)c(-c3cc(Cl)c(O)c(Cl)c3)cc2c1N[C@H]1CC[C@H](CN2CCC(N)C2)CC1 (stereo partly drawn)	55 nM
CS(=O)(=O)c1cnc2ccc(-c3cc(Cl)c(O)c(Cl)c3)cc2c1Nc1cccc(CCN2CCCC2)c1	2 nM
CC(=O)c1cnc2ccc(-c3cc(Cl)c(O)c(Cl)c3)cc2c1Nc1ccc(S(=O)(=O)N2CCN(C)CC2)cc1	36 nM
CS(=O)(=O)c1cnc2ccc(-c3cc(Cl)c(O)c(Cl)c3)cc2c1N[C@H]1CC[C@H](CN2CCCC2)CC1	2.7 nM
CN(C)C1CCN(c2ccc(Nc3c(S(C)(=O)=O)cnc4ccc(-c5cc(Cl)c(O)c(Cl)c5)cc34)cn2)C1 (stereo not drawn)	2.4 nM
CN(C)C[C@H]1CC[C@H](Nc2c(C(=O)C3CCCC3)cnc3ccc(-c4cc(Cl)c(O)c(Cl)c4)cc23)CC1	3 nM
CN(C)C[C@H]1CC[C@H](Nc2c(C(=O)C(C)(C)C)cnc3ccc(-c4cc(Cl)c(O)c(Cl)c4)cc23)CC1	22 nM
CC(=O)c1cnc2ccc(-c3cc(Cl)c(O)c(Cl)c3)cc2c1N[C@H]1CC[C@H](NC(=O)[C@@H](N)C(C)(C)C)CC1	4.2 nM
O=C(c1cnc2ccc(-c3cc(Cl)c(O)c(Cl)c3)cc2c1Nc1cccc(CCN2CCCC2)c1)C1CCCC1	9.6 nM
CC(N)C(=O)N[C@H]1CC[C@H](Nc2c(C(=O)C(C)(C)C)cnc3ccc(-c4cc(Cl)c(O)c(Cl)c4)cc23)CC1 (stereo partly drawn)	15 nM
